Assays:
Gamma-secretase = test: (§1) Modulation of gamma-secretase in human H4 cells expressing human wild type APP751 assessed as reduction in amyloid beta42 level incubated overnight by ELISA; type: cell-based
[1] = Unbound clearance in human hepatocytes; type: ADME, cell-based, Hepatocyte
[2] = biological target: Gamma-secretase (Homo sapiens) (UniProt Q96BI3+Q9NZ42+Q8WW43+P49768+Q92542+P49810); test: as §1; type: cell-based; details: filed as modulator
[3] = Ratio of free drug concentration in mouse brain to EC90 for modulation of gamma secretase in human H4 cells expressing human wild type APP751 assessed as reduction in amyloid beta42 level incubated overnight by ELISA; type: ADME, cell-based
Mus musculus = test: In vivo modulation of gamma secretase in mouse assessed as reduction in Abeta42 levels in brain at 30 mg/kg, po measured after 6 hrs relative to control; type: functional; design: scale not given: the % may be the effect or the level left
[4] = Ratio of free drug concentration in rat brain to EC90 for modulation of gamma secretase in human H4 cells expressing human wild type APP751 assessed as reduction in amyloid beta42 level incubated overnight by ELISA; type: ADME, cell-based
Rattus norvegicus [5] = test: In vivo modulation of gamma secretase in rat assessed as reduction in Abeta42 levels in brain at 30 mg/kg, po measured after 6 hrs by ELISA relative to control; type: functional; design: scale not given: the % may be the effect or the level left
Rattus norvegicus [6] = test: In vivo modulation of gamma secretase in rat assessed as reduction in Abeta42 levels in CSF at 30 mg/kg, po measured after 6 hrs by ELISA relative to control; type: functional, Cerebrospinal fluid; design: scale not given: the % may be the effect or the level left

Row | Structure (SMILES) | EC50 (Gamma-secretase) [µM] | CL free [1] [mL/min/kg] | EC90 [2] [µM] | Ratio [3] | Activity (Mus musculus) [%] | Ratio [4] | Activity (Rattus norvegicus [5]) [%] | Activity (Rattus norvegicus [6]) [%]
1 | COc1nc(C2=NOCC(c3ccc(C4CC4)cc3)N2)ccc1-n1cnc(C)c1 (stereo not given) | 0.039 | 208 |  |  |  |  |  | 
2 | COc1nc(C2=NOCC(c3cc(Cl)cc(Cl)c3)N2)ccc1-n1cnc(C)c1 (stereo not given) | 0.01 | 85 | 0.104 | 0.8 | 23 |  |  | 
3 | COc1nc(C2=NOC(C)C(c3ccc(Cl)c(Cl)c3)N2)ccc1-n1cnc(C)c1 (stereo not given) | 0.005 | 20 |  |  |  |  |  | 
4 | COc1nc(C2=NOCC(c3ccc(F)c(C(F)(F)F)c3)N2)ccc1-n1cnc(C)c1 (stereo not given) | 0.019 |  | 0.268 | 0.7 | 41 |  |  | 
5 | COc1nc(C2=NOCC(c3ccc(C(F)(F)F)c(Cl)c3)N2)ccc1-n1cnc(C)c1 (stereo not given) | 0.01 |  |  |  |  |  |  | 
6 | COc1nc(C2=NOCC(c3ccc(Cl)cc3)N2)ccc1-n1cnc(C)c1 (stereo not given) | 0.037 | 2 | 0.389 | 0.6 | 26 |  |  | 
7 | COc1nc(C2=NOCC(c3ccc(Cl)c(F)c3)N2)ccc1-n1cnc(C)c1 (stereo not given) | 0.023 | 32 | 0.246 | 1.7 | 28 |  |  | 
8 | COc1nc(C2=NOCC(c3ccc(C(C)(C)C)cc3)N2)ccc1-n1cnc(C)c1 (stereo not given) | 0.01 | 320 |  |  |  |  |  | 
9 | COc1nc(C2=NOCC(c3ccc(Cl)c(C4CC4)c3)N2)ccc1-n1cnc(C)c1 (stereo not given) | 0.013 | 274 |  |  |  |  |  | 
10 | COc1nc(C2=NOC[C@H](c3cc4ccccc4o3)N2)ccc1-n1cnc(C)c1 | 0.035 | 51 | 0.383 | 1.1 | 43 | 0.7 | 30 | 58
11 | COc1nc(C2=NOCC(c3ccc(Cl)c(C)c3)N2)ccc1-n1cnc(C)c1 (stereo not given) | 0.01 | 70 | 0.127 | 1.3 | 30 |  |  | 
12 | COc1nc(C2=NOCC(c3ccc(C(F)(F)F)c(F)c3)N2)ccc1-n1cnc(C)c1 (stereo not given) | 0.021 | 62 |  |  |  |  |  | 
13 | COc1nc(C2=NOCC(c3ccc(C#N)cc3)N2)ccc1-n1cnc(C)c1 (stereo not given) | 0.45 |  |  |  |  |  |  | 
14 | COc1nc(C2=NOCC(c3ccc(C)cc3)N2)ccc1-n1cnc(C)c1 (stereo not given) | 0.074 | 135 |  |  |  |  |  | 
15 | COc1nc(C2=NOCC(c3cccc(C#N)c3)N2)ccc1-n1cnc(C)c1 (stereo not given) | 0.214 |  |  |  |  |  |  | 
16 | COc1nc(C2=NOCC(c3cccc(Cl)c3)N2)ccc1-n1cnc(C)c1 (stereo not given) | 0.026 | 15 |  |  |  |  |  | 
17 | COc1nc(C2=NOCC(c3ccc(C(F)(F)F)cc3)N2)ccc1-n1cnc(C)c1 (stereo not given) | 0.034 | 12 | 0.407 | 1.1 | 36 |  |  | 

Row | Structure (SMILES) | EC50 (Gamma-secretase) [µM] | CL free [1] [mL/min/kg] | EC90 [2] [µM] | Ratio [3] | Activity (Mus musculus) [%] | Ratio [4] | Activity (Rattus norvegicus [5]) [%] | Activity (Rattus norvegicus [6]) [%]
18 | COc1nc(C2=NOCC(c3ccccc3)N2)ccc1-n1cnc(C)c1 (stereo in doubt; 7) | 2 |  |  |  |  |  |  | 
19 | COc1nc(C2=NOC(C)C(c3ccc(Cl)cc3)N2)ccc1-n1cnc(C)c1 (stereo not given) | 0.016 | 12 | 0.187 | 4.5 | 47 | 0.3 | 41 | 84
20 | COc1ccc(C2CON=C(c3ccc(-n4cnc(C)c4)c(OC)n3)N2)cc1 (stereo not given) | 0.097 |  |  |  |  |  |  | 
21 | COc1nc(C2=NOCC(c3ccc(C4CC4)c(Cl)c3)N2)ccc1-n1cnc(C)c1 (stereo not given) | 0.013 | 1147 |  |  |  |  |  | 
22 | COc1nc(C2=NOCC(c3cccc(C(F)(F)F)c3)N2)ccc1-n1cnc(C)c1 (stereo not given) | 0.043 |  |  |  |  |  |  | 
23 | COc1cccc(C2CON=C(c3ccc(-n4cnc(C)c4)c(OC)n3)N2)c1 (stereo not given) | 0.197 |  |  |  |  |  |  | 
24 | COc1nc(C2=NOCC(c3ccc(C)c(Cl)c3)N2)ccc1-n1cnc(C)c1 (stereo not given) | 0.014 | 422 |  |  |  |  |  | 
25 | COc1nc(C2=NOCC(c3ccc(Cl)c(Cl)c3)N2)ccc1-n1cnc(C)c1 (stereo not given) | 0.01 |  | 0.097 | 0.5 | 37 |  |  | 
26 | COc1nc(C2=NOCC(c3ccc(F)c(Cl)c3)N2)ccc1-n1cnc(C)c1 (stereo not given) | 0.023 | 13 | 0.278 | 1.5 | 30 |  |  | 
27 | COc1nc(C2=NOC(C)(C)C(c3ccccc3)N2)ccc1-n1cnc(C)c1 (stereo not given) | 0.075 | 5 |  |  |  |  |  | 
28 | COc1nc(C2=NOC(C)C(c3ccc(Cl)c(F)c3)N2)ccc1-n1cnc(C)c1 (stereo not given) | 0.008 | 1 | 0.097 | 2.6 | 43 | 2.4 | 44 | 73
29 | COc1nc(C2=NOCC(c3ccc(Cl)c(C(F)(F)F)c3)N2)ccc1-n1cnc(C)c1 (stereo not given) | 0.008 | 6 |  |  |  |  |  | 
30 | COc1nc(C2=NOCC(c3cccc(C4CC4)c3)N2)ccc1-n1cnc(C)c1 (stereo not given) | 0.023 | 29 |  |  |  |  |  | 
31 | COc1nc(C2=NOC(C)(C)C(c3ccc(Cl)cc3)N2)ccc1-n1cnc(C)c1 (stereo not given) | 0.023 | 15 |  |  |  |  |  | 
32 | COc1nc(C2=NOCC(c3ccccc3)N2)ccc1-n1cnc(C)c1 (stereo in doubt; 7a) | 0.097 | 21 |  |  |  |  |  | 
33 | COc1nc(C2=NOC(C)C(c3cccc(Cl)c3)N2)ccc1-n1cnc(C)c1 (stereo not given) | 0.014 | 19 |  |  |  |  |  | 
34 | COc1nc(C2=NOCC(c3ccc(F)cc3)N2)ccc1-n1cnc(C)c1 (stereo not given) | 0.06 |  |  |  |  |  |  | 

Source: ChEMBL document CHEMBL4837257, “Discovery of the Oxadiazine FRM-024: A Potent CNS-Penetrant Gamma Secretase Modulator” (J Med Chem, 2021)
